Laboratory results: PubChem BioAssay AID330 (DTP/NCI, 2004)
“And” between values parts separate entries of the source, which are not always exact repeats. Equal values may be shown once. Toxic doses and inconclusive results are not listed. How the source made its calls: active means survival T/C of 150% or more; inactive means T/C below 125% in these data.

System: P388 leukemia ip, CD2F1 mice, survival T/C
Assay: NCI In Vivo Anticancer Drug Screen. Data for tumor model P388 Leukemia (intraperitoneal) in CD2F1 (CDF1) mice
Conditions: endpoint: median survival time, higher = longer survival
Procedure, shortened: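 Mice carrying the transplanted tumor received test compound or vehicle. Survival was recorded in each group, and the value is the treated-group measurement divided by that of the vehicle-treated control group.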

[1] = dose: 60.0 mg/kg/injection, schedule: Q01DX005 (ip), vehicle: saline with Tween-80
[2] = dose: 120.0 mg/kg/injection, schedule: Q01DX005 (ip), vehicle: saline with Tween-80
[3] = dose: 100.0 mg/kg/injection, schedule: Q01DX009 (ip), vehicle: Klucel (hydroxypropylcellulose) (HPC)
[4] = dose: 200.0 mg/kg/injection, schedule: Q01DX009 (ip), vehicle: Klucel (hydroxypropylcellulose) (HPC)
[5] = dose: 240.0 mg/kg/injection, schedule: Q01DX005 (ip), vehicle: saline with Tween-80
[6] = dose: 50.0 mg/kg/injection, schedule: Q01DX005 (ip), vehicle: Klucel (hydroxypropylcellulose) (HPC)
[7] = dose: 100.0 mg/kg/injection, schedule: Q01DX005 (ip), vehicle: Klucel (hydroxypropylcellulose) (HPC)
[8] = dose: 200.0 mg/kg/injection, schedule: Q01DX005 (ip), vehicle: Klucel (hydroxypropylcellulose) (HPC)
[9] = dose: 50.0 mg/kg/injection, schedule: Q01DX005 (ip), vehicle: saline with Tween-80
[10] = dose: 50.0 mg/kg/injection, schedule: Q01DX009 (ip), vehicle: saline with Tween-80
[11] = dose: 100.0 mg/kg/injection, schedule: Q01DX009 (ip), vehicle: saline with Tween-80
[12] = dose: 200.0 mg/kg/injection, schedule: Q01DX009 (ip), vehicle: saline with Tween-80

Measured: T/C

CSc1nc(NC2OCC(O)C(O)C2O)c(C=O)c(=O)n1C (stereo not drawn)
inactive: [1] 96 % of control | [2] 97 % of control

C/C=C/C(=O)OC(C)CCC(CC)CCCC (stereo not drawn)
inactive: [3] 100 % of control | [4] 96 % of control | dose: 400.0 mg/kg/injection, schedule: Q01DX009 (ip), vehicle: Klucel (hydroxypropylcellulose) (HPC) 91 % of control

NC(N)=Nc1c(N)ncnc1N
inactive: [1] 104 % of control and 95 % of control | [2] 100 % of control | [5] 96 % of control and 98 % of control

O=C(CN1CCCCC1)Nc1ccc2c(c1)C(=O)c1ccc(NC(=O)CN3CCCCC3)cc1C2=O
inactive: [6] 90 % of control and 97 % of control | dose: 50.0 mg/kg/injection, schedule: Q01DX005 (ip), vehicle: acid diluted with saline 100 % of control | [7] 90 % of control and 94 % of control | dose: 100.0 mg/kg/injection, schedule: Q01DX005 (ip), vehicle: acid diluted with saline 106 % of control | [8] 90 % of control and 95 % of control | dose: 200.0 mg/kg/injection, schedule: Q01DX005 (ip), vehicle: acid diluted with saline 108 % of control

O=C(CCl)Nc1nc(NC(=O)CCl)nc(NC(=O)CCl)n1
inactive: dose: 100.0 mg/kg/injection, schedule: Q04DX002 (ip), vehicle: saline 96 % of control | dose: 200.0 mg/kg/injection, schedule: Q04DX002 (ip), vehicle: saline 96 % of control | dose: 400.0 mg/kg/injection, schedule: Q04DX002 (ip), vehicle: saline 95 % of control

COc1cc(C2CC(C)(OC)Oc3cc4c(cc32)OCO4)cc(OC)c1OC (stereo not drawn)
inactive: [1] 106 % of control and 90 % of control and 95 % of control | [2] 109 % of control and 95 % of control and 97 % of control

Cc1cc(=O)oc2c3c4c(cc12)CCCN4CCC3
inactive: dose: 100.0 mg/kg/injection, schedule: Q04DX003 (ip), vehicle: Klucel (hydroxypropylcellulose) (HPC) 111 % of control | dose: 200.0 mg/kg/injection, schedule: Q04DX003 (ip), vehicle: Klucel (hydroxypropylcellulose) (HPC) 109 % of control

CCCCCCCCCCCCCCN1CCS(=O)(=O)CC1
inactive: dose: 50.0 mg/kg/injection, schedule: Q01DX009 (ip), vehicle: Klucel (hydroxypropylcellulose) (HPC) 89 % of control | [3] 91 % of control | [4] 90 % of control

CCOc1ccc(S(=O)(=O)c2ccc(C)cc2)c2c1no[n+]2[O-]
inactive: dose: 3.75 mg/kg/injection, schedule: Q01DX009 (ip), vehicle: saline with Tween-80 101 % of control | dose: 7.5 mg/kg/injection, schedule: Q01DX009 (ip), vehicle: saline with Tween-80 99 % of control and 95 % of control | dose: 15.0 mg/kg/injection, schedule: Q01DX009 (ip), vehicle: saline with Tween-80 107 % of control

COC(=O)CCC1=C(C)c2cc3[n-]c(cc4nc(cc5[n-]c(cc1n2)c(CCC(=O)OC)c5C)C(C(C)=O)=C4C)c(C(C)=O)c3C.[Cl-].[Fe+3]
inactive: [6] 104 % of control | [7] 106 % of control | [8] 99 % of control

CC(=O)Nc1scc[n+]1Cc1ccccc1
inactive: [6] 100 % of control | [7] 100 % of control | [8] 91 % of control

CCOc1ccc(NC(=O)C2=C(C)NC(C)=C(C(=O)Nc3ccc(OCC)cc3)C2c2cccc([N+](=O)[O-])c2)cc1
inactive: dose: 15.0 mg/kg/injection, schedule: Q01DX005 (ip), vehicle: Klucel (hydroxypropylcellulose) (HPC) 98 % of control | dose: 30.0 mg/kg/injection, schedule: Q01DX005 (ip), vehicle: Klucel (hydroxypropylcellulose) (HPC) 104 % of control | dose: 60.0 mg/kg/injection, schedule: Q01DX005 (ip), vehicle: Klucel (hydroxypropylcellulose) (HPC) 92 % of control and 97 % of control

Cc1cc(C)c2c(=O)c3c(oc2c1)O[C@@](C)(CO)C[C@@H]3c1ccccc1
inactive: [1] 101 % of control | [2] 98 % of control | [5] 106 % of control

CCCOc1cc2c(cc1C/C=C/c1ccccc1)OCO2
inactive: [9] 94 % of control | dose: 100.0 mg/kg/injection, schedule: Q01DX005 (ip), vehicle: saline with Tween-80 100 % of control | dose: 200.0 mg/kg/injection, schedule: Q01DX005 (ip), vehicle: saline with Tween-80 102 % of control

CCOC(=S)c1cccc(C(=S)OCC)c1
inactive: [10] 104 % of control | [11] 100 % of control | [12] 103 % of control

OCC1OC(Sc2ncc[nH]2)C(O)C(O)C1O (stereo not drawn)
inactive: dose: 60.0 mg/kg/injection, schedule: Q01DX005 (ip), vehicle: saline 94 % of control and 97 % of control | dose: 120.0 mg/kg/injection, schedule: Q01DX005 (ip), vehicle: saline 95 % of control and 96 % of control | dose: 240.0 mg/kg/injection, schedule: Q01DX005 (ip), vehicle: saline 97 % of control and 90 % of control

OC[P+](CO)(CO)CO
inactive: dose: 6.25 mg/kg/injection, schedule: Q01DX005 (ip), vehicle: saline with Tween-80 117 % of control and 96 % of control | dose: 12.5 mg/kg/injection, schedule: Q01DX005 (ip), vehicle: saline with Tween-80 114 % of control and 96 % of control | dose: 25.0 mg/kg/injection, schedule: Q01DX005 (ip), vehicle: saline with Tween-80 95 % of control | [9] 104 % of control and 122 % of control

CCOC(=O)CSc1nnc(-c2cc(OC)c(OCC)c(OC)c2)o1
inactive: dose: 62.5 mg/kg/injection, schedule: Q01DX001 (ip), vehicle: Klucel (hydroxypropylcellulose) (HPC) 102 % of control | dose: 125.0 mg/kg/injection, schedule: Q01DX001 (ip), vehicle: Klucel (hydroxypropylcellulose) (HPC) 102 % of control | dose: 250.0 mg/kg/injection, schedule: Q01DX001 (ip), vehicle: Klucel (hydroxypropylcellulose) (HPC) 100 % of control

O=C1C(C2=CCCCC2)CCCC1C1=CCCCC1 (stereo not drawn)
inactive: [10] 89 % of control | [11] 91 % of control | [12] 104 % of control

Cc1ccc(S(=O)(=O)C(Cc2cc(Cl)cc(Cl)c2O)C(=O)c2ccccc2)cc1 (stereo not drawn)
inactive: [6] 101 % of control | [7] 90 % of control | [8] 92 % of control

O=CNNC(=O)c1cnccn1
inactive: dose: 89.0 mg/kg/injection, schedule: Q01DX009 (ip), vehicle: water 109 % of control | dose: 133.0 mg/kg/injection, schedule: Q01DX009 (ip), vehicle: water 100 % of control | dose: 200.0 mg/kg/injection, schedule: Q01DX009 (ip), vehicle: water 118 % of control

O=CC1C2C=CCC12 (stereo not drawn)
inactive: [11] 113 % of control | [12] 118 % of control | dose: 400.0 mg/kg/injection, schedule: Q01DX009 (ip), vehicle: saline with Tween-80 113 % of control

CC1=CC[C@@H]2[C@@H](CC[C@@]2(C)O)C(C)(C)[C@H]1CC[C@@H]1[C@@]2(C)CC[C@@H](O)C(C)(C)O[C@@H]2CC[C@]1(C)O
inactive: dose: 8.0 mg/kg/injection, schedule: Q01DX005 (ip), vehicle: saline + Tween-80 + alcohol 103 % of control | dose: 16.0 mg/kg/injection, schedule: Q01DX005 (ip), vehicle: saline + Tween-80 + alcohol 103 % of control | dose: 32.0 mg/kg/injection, schedule: Q01DX005 (ip), vehicle: saline + Tween-80 + alcohol 97 % of control | dose: 64.0 mg/kg/injection, schedule: Q01DX005 (ip), vehicle: saline + Tween-80 + alcohol 96 % of control

C[Si](Cn1ccc(=O)[nH]c1=O)(c1ccccc1)c1ccccc1
inactive: dose: 100.0 mg/kg/injection, schedule: Q01DX001 (ip), vehicle: saline with Tween-80 109 % of control | dose: 200.0 mg/kg/injection, schedule: Q01DX001 (ip), vehicle: saline with Tween-80 100 % of control | dose: 400.0 mg/kg/injection, schedule: Q01DX001 (ip), vehicle: saline with Tween-80 95 % of control

CCCCCCCCP(=O)(N1CC1C)N1CC1C (stereo not drawn)
inactive: dose: 3.13 mg/kg/injection, schedule: Q01DX009 (ip), vehicle: saline 109 % of control | dose: 6.25 mg/kg/injection, schedule: Q01DX009 (ip), vehicle: saline 109 % of control | dose: 12.5 mg/kg/injection, schedule: Q01DX009 (ip), vehicle: saline with Tween-80 122 % of control | dose: 12.5 mg/kg/injection, schedule: Q01DX009 (ip), vehicle: saline 109 % of control | dose: 12.5 mg/kg/injection, schedule: Q04DX003 (ip), vehicle: saline with Tween-80 100 % of control | dose: 25.0 mg/kg/injection, schedule: Q04DX003 (ip), vehicle: saline with Tween-80 95 % of control | dose: 50.0 mg/kg/injection, schedule: Q04DX003 (ip), vehicle: saline with Tween-80 109 % of control | dose: 50.0 mg/kg/injection, schedule: Q04DX003 (ip), vehicle: saline 108 % of control

COc1cc(-c2nnc(SCCN(C)C)o2)cc(OC)c1OC
inactive: dose: 50.0 mg/kg/injection, schedule: Q04DX002 (ip), vehicle: water 100 % of control | dose: 100.0 mg/kg/injection, schedule: Q04DX002 (ip), vehicle: water 101 % of control | dose: 200.0 mg/kg/injection, schedule: Q04DX002 (ip), vehicle: water 100 % of control

Cc1ccc(C)c(NC(=O)C(=O)C(C#N)c2c(Cl)cccc2Cl)c1 (stereo not drawn)
inactive: [1] 96 % of control | [2] 102 % of control | [5] 99 % of control
